Measurements from patent US20230348953A1, “HIGH THROUGHPUT, FLUORESCENCE-BASED ESTERASE ACTIVITY ASSAY FOR ASSESSING POLYSORBATE DEGRADATION RISK DURING BIOPHARMACEUTICAL DEVELOPMENT” (GENENTECH, INC., priority 2020, published 2023).
Entries after “also recorded” stand apart in the source; their conditions may differ.

Tests used:
PCL, LPLA2, PLBL2 = assay: Substrate specificity, model enzymes; type: biochemical; conditions: 0.5 mM substrate; PCL and LPLA2 20 ng/ml, PLBL2 400 µg/ml
Description: (§1) The esterase activity assay monitors the conversion of the non-fluorescent substrates, 4-methylumbelliferyl fatty acid esters, to a fluorescent product, MU, through the cleavage of the ester bond. […] The concentration of each buffer component was selected based on in-house assay development studies (data not shown). A 50 mM tris chloride running buffer at pH 8.0 with 0.01% gum arabic was previously used to determine activity rates in a lipase and esterase activity assay (Nalder TD, et al., Biochimie. 2016;128-129:127-132).

[1] = system: purified protein samples (mAbs 1-3); assay: Substrate specificity, purified protein samples; type: biochemical, CHO and E. coli; conditions: 0.5 mM substrate; mAbs 1-3 neat, 150-225 mg/ml
Description: as §1

[2] = biological target: T1, Pseudomonas cepacia lipase (PCL) (Burkholderia cepacia, UniProt P22088); assay: Orlistat inhibition, esterase activity assay with MU-C8; type: biochemical; conditions: orlistat 0.5, 1 and 10 µM; PCL 50 ng/ml; MU-C8 substrate
T1 construct: purchased Sigma Aldrich
T1 sequence (P22088 45-364): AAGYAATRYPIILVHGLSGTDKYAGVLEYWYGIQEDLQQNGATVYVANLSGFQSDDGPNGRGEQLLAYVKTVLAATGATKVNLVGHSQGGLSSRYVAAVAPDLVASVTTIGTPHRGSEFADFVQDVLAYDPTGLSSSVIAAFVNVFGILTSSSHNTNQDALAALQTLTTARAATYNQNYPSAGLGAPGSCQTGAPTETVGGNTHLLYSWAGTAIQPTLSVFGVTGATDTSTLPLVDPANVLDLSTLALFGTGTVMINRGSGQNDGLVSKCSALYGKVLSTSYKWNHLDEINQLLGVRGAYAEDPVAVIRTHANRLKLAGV
Description: (§2) The esterase activity assay monitors the conversion of the non-fluorescent substrates, 4-methylumbelliferyl fatty acid esters, to a fluorescent product, MU, through the cleavage of the ester bond. The reaction mixture contained 80 µl of reaction buffer (150 mM tris chloride pH 8.0, 0.25% (w/v) Triton X-100 and 0.125% (w/v) gum arabic), 10 µl substrate at 1 mM final concentration, and 10 µl model enzyme solution or protein samples. The concentration of each buffer component was selected based on in-house assay development studies (data not shown). […]
(§3) Model enzymes were diluted in water to the desired concentrations. […] The reaction was set up in 96-well plates and the increase of fluorescence signal (using excitation and emission wavelengths of 355 nm and 460 nm, respectively) was monitored every 10 minutes by incubating the reaction plates for two hours at 37° C. in a plate reader. Rate of production of MU, representing the total hydrolytic activity (from enzymatic and non-enzymatic hydrolysis), was derived from the slope of the fluorescence time course from 30 minutes to 120 minutes, and is denoted by the reaction raw rate (kraw). […]
(§4) Orlistat stock solution in DMSO was freshly prepared for each inhibition reaction. […] Rates were adjusted for background fluorescence as measured by the enzyme blank (negative control) wells. […]

[3] = system: lysosomal phospholipase A2 (LPLA2); assay: as above; type: biochemical; conditions: orlistat 0.5, 1 and 10 µM; LPLA2 50 ng/ml; MU-C8 substrate
Description: as §2, §3, §4

[4] = system: residual hydrolytic HCPs in affinity chromatography purified mAb 2 sample (PS20 degradation); assay: Orlistat incubation, PS20 degradation by FFA (lauric acid) release in mAb 2 sample; type: biochemical, CHO (Chinese Hamster Ovary); conditions: mAb2 sample, PS20 0.04%, 25° C. 12 days, relative to samples without orlistat
Description: (§5) To investigate the effect of orlistat on PS20 degradation, affinity chromatography purified samples of mAb 2 (28 mg/mL), mAb 6 (22 mg/ml) and mAb 7 (22 mg/ml) were incubated for 5 hours at room temperature in the presence of DMSO (10% v/v) with orlistat (0.2 µM and 20 µM) or without orlistat. The samples were then spiked with PS20 (0.04% v/v) and methionine (20 mg/ml) and incubated at 25° C. for 12 days. After incubation, the samples were analyzed for PS20 hydrolytic degradation by quantifying the FFA degradant (lauric acid) as previously described in detail (Cheng Y, et al., J Pharm Sci. 2019;108(9):2880-2886).

[5] = biological target: T2, carboxylesterase 1 (CES1) (Homo sapiens, UniProt P23141); conditions: cited from earlier work
T2 sequence (P23141 18-567): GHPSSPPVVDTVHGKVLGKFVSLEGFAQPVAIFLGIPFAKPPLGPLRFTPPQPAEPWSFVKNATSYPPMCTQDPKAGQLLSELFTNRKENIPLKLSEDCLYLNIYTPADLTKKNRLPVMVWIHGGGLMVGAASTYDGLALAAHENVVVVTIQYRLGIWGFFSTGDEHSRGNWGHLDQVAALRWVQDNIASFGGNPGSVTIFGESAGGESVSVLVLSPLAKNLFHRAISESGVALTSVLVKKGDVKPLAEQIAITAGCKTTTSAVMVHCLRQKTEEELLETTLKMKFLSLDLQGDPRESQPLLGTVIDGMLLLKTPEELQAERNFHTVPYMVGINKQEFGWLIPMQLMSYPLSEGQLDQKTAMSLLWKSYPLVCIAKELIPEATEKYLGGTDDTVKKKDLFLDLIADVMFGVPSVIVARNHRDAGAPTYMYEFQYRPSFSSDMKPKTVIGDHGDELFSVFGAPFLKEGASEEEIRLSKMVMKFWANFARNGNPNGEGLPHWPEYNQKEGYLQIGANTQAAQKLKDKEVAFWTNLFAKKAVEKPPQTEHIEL

[6] = system: residual hydrolytic HCPs in affinity chromatography purified mAb 7 sample (PS20 degradation); assay: Orlistat incubation, PS20 degradation by FFA (lauric acid) release in mAb 7 sample; type: biochemical, CHO (Chinese Hamster Ovary); conditions: mAb7 sample, PS20 0.04%, 25° C. 12 days, relative to samples without orlistat
Description: as §5

[7] = system: residual HCPs in purified mAb 1 sample; assay: Orlistat inhibition, esterase activity assay with MU-C8; type: biochemical, CHO (Chinese Hamster Ovary); conditions: orlistat 0.5, 1 and 10 µM vs DMSO control; mAb 1 25 mg/ml during incubation; MU-C8 substrate
Description: as §2, §3, §4

carboxylesterase 2 = biological target: T3, carboxylesterase 2 (Homo sapiens, UniProt O00748); conditions: cited from earlier work
T3 sequence (O00748 27-559): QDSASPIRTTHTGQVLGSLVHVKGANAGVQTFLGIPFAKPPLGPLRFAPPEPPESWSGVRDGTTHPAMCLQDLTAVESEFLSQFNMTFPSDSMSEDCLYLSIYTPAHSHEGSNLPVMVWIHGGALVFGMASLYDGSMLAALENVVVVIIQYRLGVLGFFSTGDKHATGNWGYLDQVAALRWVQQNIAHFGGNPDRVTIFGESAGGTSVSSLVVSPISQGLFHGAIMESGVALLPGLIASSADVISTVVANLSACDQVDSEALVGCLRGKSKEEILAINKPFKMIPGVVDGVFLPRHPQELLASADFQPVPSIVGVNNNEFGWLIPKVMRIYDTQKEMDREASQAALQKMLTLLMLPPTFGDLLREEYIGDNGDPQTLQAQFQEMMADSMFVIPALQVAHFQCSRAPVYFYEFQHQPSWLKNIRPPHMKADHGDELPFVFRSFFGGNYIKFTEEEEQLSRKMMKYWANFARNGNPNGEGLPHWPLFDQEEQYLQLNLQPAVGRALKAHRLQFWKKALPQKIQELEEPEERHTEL

[8] = system: residual hydrolytic HCPs in affinity chromatography purified mAb 6 sample (PS20 degradation); assay: Orlistat incubation, PS20 degradation by FFA (lauric acid) release in mAb 6 sample; type: biochemical, CHO (Chinese Hamster Ovary); conditions: mAb6 sample, PS20 0.04%, 25° C. 12 days, relative to samples without orlistat
Description: as §5

SMILES: CCCCCCCC(=O)Oc1ccc2c(C)cc(=O)oc2c1 [MU-C8, 4-methylumbelliferyl caprylate]
- hydrolysis of MU ester by model enzymes (PCL, LPLA2, PLBL2): hydrolyzed
- activity of purified protein samples towards MU ester substrate [1]: most sensitivity

SMILES: CCCCCCCCCC(=O)Oc1ccc2c(C)cc(=O)oc2c1 [MU-C10, 4-methylumbelliferyl decanoate]
- hydrolysis of MU ester by model enzymes (PCL, LPLA2, PLBL2): hydrolyzed

SMILES: CCCCCCCC/C=C\CCCCCCCC(=O)Oc1ccc2c(C)cc(=O)oc2c1 [MU-C18:1, 4-methylumbelliferyl oleate]
- activity of purified protein samples towards MU ester substrate [1]: did not show activity

SMILES: CCCCCCCCCCC[C@@H](C[C@@H]1OC(=O)[C@H]1CCCCCC)OC(=O)[C@H](CC(C)C)NC=O [orlistat, (S)-2-formylamino-4-methyl-pentanoic acid (S)-1-[[(2S,3S)-3-hexyl-4-oxo-2-oxetanyl]methyl]-dodecyl ester]
- inhibition of esterase activity [2]: complete inhibition
- inhibition of esterase activity [3]: complete inhibition
- Decrease in FFA Release Rate (%) ([4]; orlistat 0.2 µM): 31%
- Decrease in FFA Release Rate (%) ([4]; orlistat 20 µM): 63%
- inhibition of carboxylesterase 1 [5]: lack of orlistat potency
- Decrease in FFA Release Rate (%) ([6]; orlistat 0.2 µM): 39%
- Decrease in FFA Release Rate (%) ([6]; orlistat 20 µM): 74%
- reduction in esterase activity rate [7]: dose-dependent reduction; also recorded: did not completely inhibit
- inhibition of carboxylesterase 2 (carboxylesterase 2): significantly inhibited
- Decrease in FFA Release Rate (%) ([8]; orlistat 0.2 µM): 67%
- Decrease in FFA Release Rate (%) ([8]; orlistat 20 µM): 91%
